Patent publication US20020065219A1, “Water soluble thiazolyl peptide derivatives” (priority 2000, published 2002)
In brackets after ≈: the same amount, converted by molar mass. Where two headings read alike, the source gives them in different places.

Legend:
[1] = test system: Streptococcus pneumoniae A28272; assay: MIC, broth micro dilution assay (NCCLS); format: cell-based; settings: for MIC: Streptococcus pneumoniae, A28272, 18 h, read-out: MIC (μg/mL) against Streptococcus pneumoniae A28272
[2] = test system: Enterococcus faecalis A20688; assay: MIC, broth micro dilution assay (NCCLS); format: cell-based; settings: for MIC: Enterococcus faecalis, A20688, 18 h, read-out: MIC (μg/mL) against Enterococcus faecalis A20688
[3] = test system: Staphylococcus aureus A15090; assay: MIC, broth micro dilution assay (NCCLS); format: cell-based; settings: for MIC: Staphylococcus aureus, A15090, 18 h, read-out: MIC (μg/mL) against Staphylococcus aureus A15090
[4] = test system: Staphylococcus aureus A15090; assay: animal or person; format: in vivo, female ICR mice; settings: A15090, in Mus musculus, iv, 1 h, read-out: PD50 (dose which protects 50% of mice from mortality)
[5] = 50% Mueller-Hinton medium and 50% Todd Hewitt medium, 35° C., 18 hours
[6] = Mueller-Hinton medium, 35° C., 18 hours

SMILES	MIC [1] [µg/mL]	MIC [2] [µg/mL]	MIC [3] [µg/mL]	ED50 [4] [mg/kg]	MIC (μg/mL) against Streptococcus pneumoniae A28272 [1, 5] [µg/mL]	MIC (μg/mL) against Enterococcus faecalis A20688 [2, 6] [µg/mL]	MIC (μg/mL) against Staphylococcus aureus A15090 [3, 6] [µg/mL]	other results
CO/C(C)=C1/NC(=O)C([C@@H](C)O)NC(=O)c2csc(n2)-c2cc(O)c(-c3nc(C(=O)NC(CNCCCn4ccnc4)C(N)=O)cs3)nc2-c2csc(n2)[C@@H]2COC(=O)c3c4c5c(cccc5n3O)COC(=O)[C@@H](O[C@H]3C[C@](C)(O)[C@H](N(C)C)[C@H](C)O3)[C@H](OC4)[C@H](NC(=O)c3csc1n3)c1nc(cs1)C(=O)N2 (some centres unmarked) [Example 5]	0.03 (≈ 0.0192 µM)	1 (≈ 0.64 µM)	1 (≈ 0.64 µM)	0.19 to 7.3				
CCN(CC)CCN(C)CC(NC(=O)c1csc(-c2nc3c(cc2O)-c2nc(cs2)C(=O)NC(C(C)O)C(=O)N/C(=C(\C)OC)c2nc(cs2)C(=O)NC2c4nc(cs4)C(=O)NC(COC(=O)c4c5c6c(cccc6n4O)COC(=O)C(O[C@H]4C[C@](C)(O)[C@H](N(C)C)[C@H](C)O4)C2OC5)c2nc-3cs2)n1)C(N)=O (some centres unmarked) [Example 6]	0.03 (≈ 0.0191 µM)	2 (≈ 1.28 µM)	0.125 (≈ 0.0797 µM)	0.19 to 7.3				
CO/C(C)=C1/NC(=O)C(C(C)O)NC(=O)c2csc(n2)-c2cc(O)c(-c3nc(C(=O)NC(CNCCc4ccccn4)C(N)=O)cs3)nc2-c2csc(n2)C2COC(=O)c3c4c5c(cccc5n3O)COC(=O)C(O[C@H]3C[C@](C)(O)[C@H](N(C)C)[C@H](C)O3)C(OC4)C(NC(=O)c3csc1n3)c1nc(cs1)C(=O)N2 (some centres unmarked) [Example 3]	0.25 (≈ 0.16 µM)	1 (≈ 0.641 µM)	1 (≈ 0.641 µM)	0.19 to 7.3				
CO/C(C)=C1/NC(=O)C(C(C)O)NC(=O)c2csc(n2)-c2cc(O)c(-c3nc(C(=O)NC(CN(C)CCO)C(N)=O)cs3)nc2-c2csc(n2)C2COC(=O)c3c4c5c(cccc5n3O)COC(=O)C(O[C@H]3C[C@](C)(O)[C@H](N(C)C)[C@H](C)O3)C(OC4)C(NC(=O)c3csc1n3)c1nc(cs1)C(=O)N2 (some centres unmarked) [Example 2]	0.015 (≈ 0.00992 µM)	0.06 (≈ 0.0397 µM)	0.015 (≈ 0.00992 µM)	0.19 to 7.3				
CO/C(C)=C1/NC(=O)C(C(C)O)NC(=O)c2csc(n2)-c2cc(O)c(-c3nc(C(=O)NC(CN(C)C)C(N)=O)cs3)nc2-c2csc(n2)C2COC(=O)c3c4c5c(cccc5n3O)COC(=O)C(O[C@H]3C[C@](C)(O)[C@H](N(C)C)[C@H](C)O3)C(OC4)C(NC(=O)c3csc1n3)c1nc(cs1)C(=O)N2 (some centres unmarked) [Example 7]	0.03 (≈ 0.0202 µM)	0.125 (≈ 0.0843 µM)	0.06 (≈ 0.0405 µM)	0.19 to 7.3				
CO/C(C)=C1/NC(=O)C(C(C)O)NC(=O)c2csc(n2)-c2cc(O)c(-c3nc(C(=O)NC(CN4CCN(C)CC4)C(N)=O)cs3)nc2-c2csc(n2)C2COC(=O)c3c4c5c(cccc5n3O)COC(=O)C(O[C@H]3C[C@](C)(O)[C@H](N(C)C)[C@H](C)O3)C(OC4)C(NC(=O)c3csc1n3)c1nc(cs1)C(=O)N2 (some centres unmarked) [Example 1]	0.125 (≈ 0.0813 µM)	0.5 (≈ 0.325 µM)	0.25 (≈ 0.163 µM)	0.19 to 7.3				
CO/C(C)=C1/NC(=O)C(C(C)O)NC(=O)c2csc(n2)-c2cc(O)c(-c3nc(C(=O)NC(CN(C)CCN(C)C)C(N)=O)cs3)nc2-c2csc(n2)C2COC(=O)c3c4c5c(cccc5n3O)COC(=O)C(O[C@H]3C[C@](C)(O)[C@H](N(C)C)[C@H](C)O3)C(OC4)C(NC(=O)c3csc1n3)c1nc(cs1)C(=O)N2 (some centres unmarked) [Example 9]	0.007 (≈ 0.00455 µM)	0.5 (≈ 0.325 µM)	0.06 (≈ 0.039 µM)	0.19 to 7.3				
CO/C(C)=C1/NC(=O)C([C@@H](C)O)NC(=O)c2csc(n2)-c2cc(O)c(-c3nc(C(=O)NC(CN4CCOCC4)C(N)=O)cs3)nc2-c2csc(n2)[C@@H]2COC(=O)c3c4c5c(cccc5n3O)COC(=O)[C@@H](O[C@H]3C[C@](C)(O)[C@H](N(C)C)[C@H](C)O3)[C@@H](OC4)[C@H](NC(=O)c3csc1n3)c1nc(cs1)C(=O)N2 (some centres unmarked) [Example 8]	0.003 (≈ 0.00197 µM)	0.125 (≈ 0.082 µM)	0.015 (≈ 0.00984 µM)	0.19 to 7.3				
CO/C(C)=C1/NC(=O)C(C(C)O)NC(=O)c2csc(n2)-c2cc(O)c(-c3nc(C(=O)NC(CN(C)CCc4ccccn4)C(N)=O)cs3)nc2-c2csc(n2)C2COC(=O)c3c4c5c(cccc5n3O)COC(=O)C(O[C@H]3C[C@](C)(O)[C@H](N(C)C)[C@H](C)O3)C(OC4)C(NC(=O)c3csc1n3)c1nc(cs1)C(=O)N2 (some centres unmarked) [Example 20]					0.005 (≈ 0.00318 µM)	0.25 (≈ 0.159 µM)	0.125 (≈ 0.0794 µM)	
CO/C(C)=C1/NC(=O)C(C(C)O)NC(=O)c2csc(n2)-c2cc(O)c(-c3nc(C(=O)NC(CNCCCCN)C(N)=O)cs3)nc2-c2csc(n2)C2COC(=O)c3c4c5c(cccc5n3O)COC(=O)C(O[C@H]3C[C@](C)(O)[C@H](N(C)C)[C@H](C)O3)C(OC4)C(NC(=O)c3csc1n3)c1nc(cs1)C(=O)N2 (some centres unmarked) [Example 11]					0.5 (≈ 0.328 µM)	8.0 (≈ 5.24 µM)	2.0 (≈ 1.31 µM)	
CCC(O)C1CCCN1CC(NC(=O)c1csc(-c2nc3c(cc2O)-c2nc(cs2)C(=O)NC(C(C)O)C(=O)NC(=C(C)OC)c2nc(cs2)C(=O)NC2c4nc(cs4)C(=O)NC(COC(=O)c4c5c6c(cccc6n4O)COC(=O)C(OC4CC(C)(O)C(N(C)C)C(C)O4)C2OC5)c2nc-3cs2)n1)C(N)=O (centres unmarked) [Example 87]					0.007 (≈ 0.00447 µM)	0.06 (≈ 0.0383 µM)	0.015 (≈ 0.00957 µM)	
COC(C)=C1NC(=O)C(C(C)O)NC(=O)c2csc(n2)-c2cc(O)c(-c3nc(C(=O)NC(CN4CCCC4C(C)(C)O)C(N)=O)cs3)nc2-c2csc(n2)C2COC(=O)c3c4c5c(cccc5n3O)COC(=O)C(OC3CC(C)(O)C(N(C)C)C(C)O3)C(OC4)C(NC(=O)c3csc1n3)c1nc(cs1)C(=O)N2 (centres unmarked) [Example 89]					0.007 (≈ 0.00447 µM)	0.03 (≈ 0.0191 µM)	0.003 (≈ 0.00191 µM)	
CO/C(C)=C1/NC(=O)C(C(C)O)NC(=O)c2csc(n2)-c2cc(O)c(-c3nc(C(=O)NC(CN4CCCC4)C(N)=O)cs3)nc2-c2csc(n2)C2COC(=O)c3c4c5c(cccc5n3O)COC(=O)C(O[C@H]3C[C@](C)(O)[C@H](N(C)C)[C@H](C)O3)C(OC4)C(NC(=O)c3csc1n3)c1nc(cs1)C(=O)N2 (some centres unmarked) [Example 15]								MIC (μg/mL) against Streptococcus pneumoniae A28272 [1]: 0.015 µg/mL (≈ 0.00994 µM); MIC (μg/mL) against Enterococcus faecalis A20688 [2]: 0.5 µg/mL (≈ 0.331 µM); MIC (μg/mL) against Staphylococcus aureus A15090 [3]: 0.06 µg/mL (≈ 0.0398 µM)
CO/C(C)=C1/NC(=O)C(C(C)O)NC(=O)c2csc(n2)-c2cc(O)c(-c3nc(C(=O)NC(CSC(CC(=O)O)C(=O)O)C(N)=O)cs3)nc2-c2csc(n2)C2COC(=O)c3c4c5c(cccc5n3O)COC(=O)C(O[C@H]3C[C@](C)(O)[C@H](N(C)C)[C@H](C)O3)C(OC4)C(NC(=O)c3csc1n3)c1nc(cs1)C(=O)N2 (some centres unmarked) [Example 42]					0.25 (≈ 0.157 µM)	4.0 (≈ 2.52 µM)	4.0 (≈ 2.52 µM)	
CNC(=O)On1c2c3c4c(cccc41)COC(=O)C(OC1CC(C)(O)C(N(C)C)C(C)O1)C(OC3)C1NC(=O)c3csc(n3)C(=C(C)OC)NC(=O)C(C(C)O)NC(=O)c3csc(n3)-c3cc(O)c(-c4nc(C(=O)NC(CN(C)C(=O)NC)C(N)=O)cs4)nc3-c3csc(n3)C(COC2=O)NC(=O)c2csc1n2 (centres unmarked) [Example 108]					0.03 (≈ 0.019 µM)	0.5 (≈ 0.316 µM)	0.125 (≈ 0.079 µM)	
CNC(=O)N(CCN(C)C)CC(NC(=O)c1csc(-c2nc3c(cc2O)-c2nc(cs2)C(=O)NC(C(C)O)C(=O)N/C(=C(\C)OC)c2nc(cs2)C(=O)NC2c4nc(cs4)C(=O)NC(COC(=O)c4c5c6c(cccc6n4O)COC(=O)C(OC4CC(C)(O)C(N(C)C)C(C)O4)C2OC5)c2nc-3cs2)n1)C(N)=O (centres unmarked) [Example 110]								MIC (μg/mL) against Streptococcus pneumoniae A28272 [1]: 0.03 µg/mL (≈ 0.019 µM); MIC (μg/mL) against Enterococcus faecalis A20688 [2]: 2.0 µg/mL (≈ 1.26 µM); MIC (μg/mL) against Staphylococcus aureus A15090 [3]: 0.5 µg/mL (≈ 0.316 µM)
COC(C)=C1NC(=O)C(C(C)O)NC(=O)c2csc(n2)-c2cc(O)c(-c3nc(C(=O)NC(CN4CC5CC4CN5C)C(N)=O)cs3)nc2-c2csc(n2)C2COC(=O)c3c4c5c(cccc5n3O)COC(=O)C(OC3CC(C)(O)C(N(C)C)C(C)O3)C(OC4)C(NC(=O)c3csc1n3)c1nc(cs1)C(=O)N2 (centres unmarked) [Example 73]								MIC (μg/mL) against Streptococcus pneumoniae A28272 [1]: 0.015 µg/mL (≈ 0.00968 µM); MIC (μg/mL) against Enterococcus faecalis A20688 [2]: 2.0 µg/mL (≈ 1.29 µM); MIC (μg/mL) against Staphylococcus aureus A15090 [3]: 0.25 µg/mL (≈ 0.161 µM)
COC(C)=C1NC(=O)C(C(C)O)NC(=O)c2csc(n2)-c2cc(O)c(-c3nc(C(=O)NC(CN4CCCC4CO)C(N)=O)cs3)nc2-c2csc(n2)C2COC(=O)c3c4c5c(cccc5n3O)COC(=O)C(OC3CC(C)(O)C(N(C)C)C(C)O3)C(OC4)C(NC(=O)c3csc1n3)c1nc(cs1)C(=O)N2 (centres unmarked) [Example 78]					0.007 (≈ 0.00455 µM)	0.125 (≈ 0.0812 µM)	0.03 (≈ 0.0195 µM)	
COC(C)=C1NC(=O)C(C(C)O)NC(=O)c2csc(n2)-c2cc(O)c(-c3nc(C(=O)NC(CNC(CO)Cc4c[nH]cn4)C(N)=O)cs3)nc2-c2csc(n2)C2COC(=O)c3c4c5c(cccc5n3O)COC(=O)C(OC3CC(C)(O)C(N(C)C)C(C)O3)C(OC4)C(NC(=O)c3csc1n3)c1nc(cs1)C(=O)N2 (centres unmarked) [Example 67]					1.0 (≈ 0.633 µM)	8.0 (≈ 5.07 µM)	2.0 (≈ 1.27 µM)	
